Assay results from ChEMBL document CHEMBL6153168, “Novel Tricyclic KRAS Inhibitors for the Treatment of Cancer” (ACS Med Chem Lett, 2025).

Key:
[1] = Disruption of 6his-tagged KRAS G12C mutant/BRAF RBD complex (unknown origin) incubated for 3 hrs in the presence of CYPA by TR-FRET assay; set-up: species or system Homo sapiens
[2] = Disruption of 6-his tagged KRAS G12D mutant/BRAF RBD complex (unknown origin) incubated for 3 hrs in the presence of CYPA by TR-FRET assay; set-up: species or system Homo sapiens
[3] = Disruption of 6-his tagged KRAS G12V mutant/BRAF RBD complex (unknown origin) incubated for 3 hrs in the presence of CYPA by TR-FRET assay; set-up: species or system Homo sapiens
[4] = test system: SW-620; assay: Anticancer activity against human SW620 cells harboring KRAS G12V mutant assessed as inhibition of cell viability incubated for 72 hrs by cell counting kit 8 method; type: functional, cell-based; settings: SW-620, 72 h
[5] = test system: AGS; assay: Anticancer activity against human AGS cells harboring KRAS G12D mutant assessed as inhibition of cell viability incubated for 72 hrs by cell counting kit 8 method; type: functional, cell-based
[6] = test system: NCI-H358; assay: Anticancer activity against human NCI-H358 cells harboring KRAS G12C mutant assessed as inhibition of cell viability incubated for 72 hrs by cell counting kit 8 method; type: functional, cell-based; settings: NCI-H358, 72 h
[7] = Inhibition of ERK phosphorylation in human AGS cells harboring KRAS G12D mutant incubated for 4 hrs by absorbance based analysis; type: cell-based
[8] = Inhibition of ERK phosphorylation in human NCI-H358 cells harboring KRAS G12C mutant incubated for 4 hrs by absorbance based analysis; type: cell-based; settings: NCI-H358, 4 h
[9] = Inhibition of ERK phosphorylation in human SW620 cells harboring KRAS G12V mutant incubated for 4 hrs by absorbance based analysis; type: cell-based; settings: SW-620, 4 h

IC50 [1]	IC50 [2]	IC50 [3]	IC50 [4]	IC50 [5]	IC50 [6]	IC50 [7]	IC50 [8]	IC50 [9]	Compound
6 nM	1880 nM	164 nM	–	–	–	–	–	–	CO[C@@H](C)c1ncccc1-c1c2c3cc(cc4c3n1CCC4)-c1cc(O)cc(c1)C[C@H](NC(=O)[C@H](C(C)C)N(C)C(=O)C1(F)CCN(C(=O)[C@H](F)Cl)CC1)C(=O)N1CCC[C@H](N1)C(=O)OCC(C)(C)C2
–	–	–	26 nM	16 nM	8 nM	–	–	–	CO[C@@H](C)c1ncc(N2CCOCC2)cc1-c1c2c3cc(cc4c3n1CC(F)(F)C4)-c1csc(n1)C[C@H](NC(=O)[C@H](C(C)C)N(C)C(=O)C1(F)CCN(C(=O)[C@H](F)Cl)CC1)C(=O)N1CCC[C@H](N1)C(=O)OCC(C)(C)C2
–	–	–	–	–	–	> 10000 nM	1 nM	23 nM	CO[C@@H](C)c1ncc(N2CCOCC2)cc1-c1c2c3cc(cc4c3n1CCC4)-c1csc(n1)C[C@H](NC(=O)[C@H](C(C)C)N(C)C(=O)C1(F)CCN(C(=O)[C@H](F)Cl)CC1)C(=O)N1CCC[C@H](N1)C(=O)OCC(C)(C)C2
16 nM	3910 nM	445 nM	–	–	–	–	–	–	CO[C@@H](C)c1ncccc1-c1c2c3cc(cc4c3n1CCO4)-c1cc(O)cc(c1)C[C@H](NC(=O)[C@H](C(C)C)N(C)C(=O)C1(F)CCN(C(=O)[C@H](F)Cl)CC1)C(=O)N1CCC[C@H](N1)C(=O)OCC(C)(C)C2
–	–	–	107 nM	292 nM	2 nM	–	–	–	CO[C@@H](C)c1ncc(N2CCN(C)CC2)cc1-c1c2c3cc(cc4c3n1CCC4)-c1csc(n1)C[C@H](NC(=O)[C@H](C(C)C)N(C)C(=O)C1(F)CCN(C(=O)[C@H](F)Cl)CC1)C(=O)N1CCC[C@H](N1)C(=O)OCC(C)(C)C2
–	–	–	–	–	–	62 nM	19 nM	38 nM	CO[C@@H](C)c1ncc(N2CCN(C)CC2)cc1-c1c2c3cc(cc4c3n1CCC4)-c1csc(n1)C[C@H](NC(=O)[C@H](C(C)C)N1CCC3(CN(C(=O)[C@H](F)Cl)C3)C1=O)C(=O)N1CCC[C@H](N1)C(=O)OCC(C)(C)C2
